What was measured:
human G361 cells = test: Cell viability of human G361 cells, FIG. 2; format: cell-based; details: metformin 0 to 20 mM
Text: AICAR [aminoimidazole carboxamide ribonucleotide] an AMPK agonist, is used as reference.

[1] = system: human melanomas cells (A375); test: Cell viability of human melanoma cells (A375), FIG. 1; format: cell-based; details: 0 to 20 mM, 72 h and 96 h
Procedure: (§1) FIG. 1 discloses a study on viability cells of human melanomas cells (A375) in comparison to normal human melanocytes.
(§2) Doses of metformin used for this experiment are in a range between 0 to 20 mM at 72 h and 96 h.

normal human melanocytes = test: Cell viability of normal human melanocytes, FIG. 1; format: cell-based; details: 0 to 20 mM, 72 h and 96 h
Procedure: as §1, §2

[2] = system: freshly human melanoma cells isolated from patients; test: Cell viability of freshly isolated human melanoma cells from patients, FIG. 1'; format: cell-based; details: 0 to 10 mM, 72 h
Procedure: FIG. 1′ discloses a study on viability cells of freshly human melanoma cells isolated from patients.
Doses of metformin used for this experiment are in a range between 0 to 10 mM at 72 h.

melanoma cells [3] = test: Cell death by FACS analysis of propidium iodide uptake, FIG. 1''; format: cell-based
Procedure: Cell death was measured by FACS analysis of propidium iodide uptake.

AMPK = test: Cell viability after AMPK disruption using si-RNA (Western Blot), FIG. 3; format: cell-based
A375 melanoma cells = test: Mouse model of melanoma xenograft (A375), FIG. 4; format: in vivo, athymic nude mice; details: 2 mg/mouse/day by injection, after 23 days of treatment
melanoma cells [4] = test: TUNEL assay of mouse tumor sections, FIG. 4'; format: in vivo; details: tumor sections of metformin-treated mice
B16 melanoma cells = test: Syngenic model, allograft of B16 melanoma cells, FIG. 4''; details: B16 allograft in C57B16 mice

| SMILES | percentage of cell viability (human G361 cells) | effect on cell viability of melanoma cells [1] | effect on cell viability of melanocytes (normal cells) (normal human melanocytes) | effect on cell viability of melanoma cells [2] | cell death (propidium iodide uptake) (melanoma cells [3]) | dependence of the effect on cell viability on AMPK (AMPK) | volume of melanoma (A375 melanoma cells) | weight of melanoma (A375 melanoma cells) | TUNEL-positive cells in the tumors (melanoma cells [4]) | volume of tumor (B16 melanoma cells) | weight of tumor (B16 melanoma cells) |
| --- | --- | --- | --- | --- | --- | --- | --- | --- | --- | --- | --- |
| NC(=O)c1ncn([C@@H]2O[C@H](CO)[C@@H](O)[C@H]2O)c1N [AICAR, aminoimidazole carboxamide ribonucleotide] | no significative effect | – | – | – | – | – | – | – | – | – | – |
| CN(C)C(=N)NC(=N)N [Metformin, N,N-dimethylimidodicarbonimidic diamide] | significant dose dependent decrease | dose dependent effect | no effect | dose dependent effect | induces a dose dependent cell death | independent on AMPK | decreases significantly | decreases significantly | increase in TUNEL-positive cells | diminished | diminished |
